Biological target: Human factor D (Homo sapiens (Human), UniProt P00746)
Assay: Human Factor D Assay
Type: biochemical
Details: human factor D 80 nM, substrate Z-L-Lys-SBzl, DTNB
Procedure, shortened: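 Serum-purified factor D (80 nM final) preincubated 5 min at room temperature with compound in 50 mM Tris, 1M NaCl, pH 7.5. Z-L-Lys-SBzl and DTNB added at 100 μM each; OD405 followed kinetically over 30 min. IC50 by non-linear regression of % inhibition.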

Chain of Human factor D (P00746 26-253): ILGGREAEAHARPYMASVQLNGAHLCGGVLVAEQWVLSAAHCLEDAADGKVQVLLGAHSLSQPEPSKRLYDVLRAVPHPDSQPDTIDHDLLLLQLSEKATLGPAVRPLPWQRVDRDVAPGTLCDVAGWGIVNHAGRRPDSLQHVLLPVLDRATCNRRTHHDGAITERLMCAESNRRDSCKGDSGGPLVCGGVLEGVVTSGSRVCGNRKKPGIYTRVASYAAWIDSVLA

SMILES | IC50
NC(=O)c1nn(CC(=O)N2C[C@H](F)C[C@H]2C(=O)Nc2cccc(Br)n2)c2ccc(-c3ccnnc3)cc12 [Compound 25, 1-(2-((2S,4R)-2-(6-bromopyridin-2-ylcarbamoyl)-4-fluoropyrrolidin-1-yl)-2-oxoethyl)-5-(pyridazin-4-yl)-1H-indazole-3-carboxamide] | < 1 µM
CC(=O)c1cn(CC(=O)N2C[C@H](F)C[C@H]2C(=O)Nc2cncc(Br)n2)c2ccc(-c3ccnnc3)cc12 [Compound 127, (2S,4R)-1-(2-(3-acetyl-5-(pyridazin-4-yl)-1H-indol-1-yl)acetyl)-N-(6-bromopyrazin-2-yl)-4-fluoropyrrolidine-2-carboxamide] | < 1 µM
NC(=O)c1nn(CC(=O)N2C[C@H](F)C[C@H]2C(=O)NCc2ccncc2)c2ccc(-c3ccnnc3)cc12 [Compound 157, 1-(2-((2S,4R)-4-fluoro-2-(pyridin-4-ylmethylcarbamoyl)pyrrolidin-1-yl)-2-oxoethyl)-5-(pyridazin-4-yl)-1H-indazole-3-carboxamide] | > 10 µM
Cc1ncc(-c2ccc3c(c2)c(C(N)=O)nn3CC(=O)N2C[C@H](F)C[C@H]2C(=O)Nc2cccc(-c3ccccc3Cl)c2F)cn1 [Compound 103, 1-(2-((2S,4R)-2-(2′-chloro-2-fluorobiphenyl-3-ylcarbamoyl)-4-fluoropyrrolidin-1-yl)-2-oxoethyl)-5-(2-methylpyrimidin-5-yl)-1H-indazole-3-carboxamide] | < 1 µM

Reference: US9796741B2 (Achillion Pharmaceuticals, Inc., priority 2014, dated 2017)
